Here are results for 39 molecules from patent publication US20230174523A1, “BENZENESULFONAMIDE DERIVATIVES AS TRAP1 MODULATORS AND USES THEREOF” (Amathus Therapeutics, Inc., priority 2020, published 2023).

The target in this experiment is T1, TRAP1 enzyme (Homo sapiens, UniProt Q12931).
T1 sequence (Q12931 60-704): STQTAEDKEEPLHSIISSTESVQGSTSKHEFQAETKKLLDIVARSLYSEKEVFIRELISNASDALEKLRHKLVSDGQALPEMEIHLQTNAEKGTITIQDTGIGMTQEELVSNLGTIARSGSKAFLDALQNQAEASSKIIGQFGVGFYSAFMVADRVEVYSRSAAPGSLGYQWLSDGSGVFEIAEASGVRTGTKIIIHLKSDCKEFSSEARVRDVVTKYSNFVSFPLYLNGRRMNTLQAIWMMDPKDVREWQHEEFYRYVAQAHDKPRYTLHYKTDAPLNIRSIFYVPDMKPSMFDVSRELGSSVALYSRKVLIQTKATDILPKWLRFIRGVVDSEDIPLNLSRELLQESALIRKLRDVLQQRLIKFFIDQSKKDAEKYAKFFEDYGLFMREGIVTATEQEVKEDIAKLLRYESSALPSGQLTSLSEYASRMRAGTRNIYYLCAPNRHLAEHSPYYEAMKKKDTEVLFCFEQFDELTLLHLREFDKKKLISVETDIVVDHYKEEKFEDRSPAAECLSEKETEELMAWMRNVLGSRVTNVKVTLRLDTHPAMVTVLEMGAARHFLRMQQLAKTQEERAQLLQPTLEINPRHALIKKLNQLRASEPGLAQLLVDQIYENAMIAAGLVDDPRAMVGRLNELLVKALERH
Briefly: ADP Glo assay of TRAP1 ATPase activity. The experiment is classed as biochemical. To be noted: for EC50: TRAP1 ATPase activation, 150 nM Trap1, 20 μM ATP, geometric mean, read-out: ADP GLO DRC: GeoMean EC50; for Emax: read-out: ADP GLO DRC: Mean Emax. The procedure: Potency of test compounds to modulate the ATPase activity of TRAP1 enzyme was evaluated using ADP Glo assay. The assay is based on quantification of the ADP generated from ATP in the ATPase reaction. The assay is performed in two steps: first, after the ATPase reaction, an equal volume of ADP-Glo™ Reagent is added to terminate the ATPase reaction and deplete the remaining ATP. Second, the Kinase Detection Reagent is added to simultaneously convert ADP to ATP and allow the newly synthesized ATP to be measured using a luciferase/luciferin reaction.
All the assays were carried out in a 384-well Proxiplate. The buffer used was 25 mM Pipes pH-7.5, 40 mM KCl, 0.05 mM MgCl2, 0.025% BSA, 0.316 mM EGTA, 0.003% Empigen, 0.01% Igepal. 150 nM Trap1 enzyme was incubated with various concentrations of the test compound (0.79 μM-100 μM) at 37° C. for 30 mins (except in blank wells). 20 μM ATP was added to each well to start the reaction. The plate was spun for 1 min at 1200 rpm and then incubated at 37° C. for 60 mins. 5 μl of ADP Glo reagent was added to all the wells and spun the plate for 1 min at 1200 rpm and kept it on a shaker at ambient temperature for 60 mins. 10 μl of kinase detection mix was added to all the wells and the plate was read for Luminescence at 495 nm. The amount of ADP released was estimated from ATP/ADP standard curve generated at the same experimental conditions. Emax (Maximal percent activation) and EC50 (concentration for half maximal activation) were estimated by fitting the dose response data to a sigmoidal curve fitting equation using Graphpad Prism software V. 8.
(In ADP-Glo the light output rises with the ADP produced.)

A value given as a limit tells only on which side of the number the result lay.

In the case of `Cc1nc(C(=O)Nc2ccc(F)c(S(=O)(=O)Nc3ccc(Cl)cc3)c2)nn1-c1ccc(F)cc1` [Compound 835], the 50% effective concentration (EC50) was 10 to 20 µM and the Emax is 123 to 159%.

As for `O=C(c1ccccc1)c1cccnc1C(=O)Nc1ccc(F)c(S(=O)(=O)Nc2ccc(Cl)cc2)c1` [Compound 836], the EC50 lay within 20 to 100 µM and the Emax lay within 200 to 300%.

`COc1ccc(-c2noc(C)c2C(=O)Nc2ccc(F)c(S(=O)(=O)Nc3ccc(Cl)cc3)c2)cc1` [Compound 838]: the EC50 was 10 to 20 µM and the Emax lay within 123 to 159%.

For `COc1ccc(NC(=O)c2ccc(N3CCCC3)c(F)c2)cc1S(=O)(=O)Nc1c(C)cccc1C` [Compound 1004], the EC50 is less than 10 µM and the Emax lay within 160 to 199%.

For the molecule `COc1ccc(NC(=O)c2csc(C)c2C)cc1S(=O)(=O)Nc1c(C)cccc1C` [Compound 1005], the EC50 was less than 10 µM and the Emax lay within 200 to 300%.

On to `COc1ccc(NC(=O)c2ccc3c(c2)CCN3C)cc1S(=O)(=O)Nc1c(C)cccc1C` [Compound 1008], for which the EC50 lay within 20 to 100 µM and the Emax was in the range of 123 to 159%.

For `COc1ccc(NC(=O)c2cc(C)n(C)c2)cc1S(=O)(=O)Nc1c(C)cccc1C` [Compound 1009], the EC50 was in the range of 20 to 100 µM and the Emax lay within 160 to 199%.

On to `COc1ccc(NC(=O)c2nn(C)c3c2CCC3)cc1S(=O)(=O)Nc1c(C)cccc1C` [Compound 1010], for which the EC50 lay within 10 to 20 µM and the Emax was in the range of 200 to 300%.

On to `COc1ccc(NC(=O)c2ncn(-c3cccc(F)c3)n2)cc1S(=O)(=O)Nc1c(C)cccc1C` [Compound 1011], for which the EC50 lay in the range of 20 to 100 µM and the Emax was in the range of 200 to 300%.

As for `COc1ccc(NC(=O)c2ccc(C(F)(F)F)n2C)cc1S(=O)(=O)Nc1c(C)cccc1C` [Compound 1013], the half-maximal effective concentration (EC50) was less than 10 µM and the Emax is 123 to 159%.

As to `COc1ccc(NC(=O)c2ccc3c(c2)C2CCCS2(=O)=N3)cc1S(=O)(=O)Nc1c(C)cccc1C` (stereo not drawn) [Compound 1016], the EC50 fell in the range of 20 to 100 µM and the Emax was in the range of 200 to 300%.

Consider `COc1ccc(NC(=O)c2cccc3nc(C)sc23)cc1S(=O)(=O)Nc1c(C)cccc1C` [Compound 1017], for which the EC50 was less than 10 µM and the Emax lay in the range of 200 to 300%.

As to `CCc1cc(C(=O)Nc2ccc(OC)c(S(=O)(=O)Nc3c(C)cccc3C)c2)cc(C)n1` [Compound 1018], the EC50 was in the range of 10 to 20 µM and the Emax is greater than 300%.

As to `COc1ccc(NC(=O)c2ccc(-n3cccn3)cc2Cl)cc1S(=O)(=O)Nc1c(C)cccc1C` [Compound 1019], the EC50 is less than 10 µM and the Emax is 160 to 199%.

Consider `COc1ccc(NC(=O)c2cc3cc(Br)cnc3s2)cc1S(=O)(=O)Nc1c(C)cccc1C` [Compound 1020], for which the 50% effective concentration (EC50) was in the range of 10 to 20 µM and the Emax was in the range of 200 to 300%.

For `COc1ccc(NC(=O)c2ccc(C)nc2OC)cc1S(=O)(=O)Nc1c(C)cccc1C` [Compound 1021], the EC50 was less than 10 µM and the Emax was in the range of 200 to 300%.

Turning to `COc1ccc(NC(=O)c2cnccc2-c2ccccc2)cc1S(=O)(=O)Nc1c(C)cccc1C` [Compound 1022], the concentration for a half-maximal effect (EC50) is 20 to 100 µM and the Emax fell in the range of 200 to 300%.

For `COc1ccc(NC(=O)c2ccc3c(Br)nn(C)c3c2)cc1S(=O)(=O)Nc1c(C)cccc1C` [Compound 1024], the EC50 was less than 10 µM and the Emax was 200 to 300%.

With `COc1ccc(NC(=O)c2ccccc2C2CC2)cc1S(=O)(=O)Nc1c(C)cccc1C` [Compound 1028], the EC50 fell in the range of 10 to 20 µM and the Emax fell in the range of 160 to 199%.

As for `COc1ccc(NC(=O)c2ncn(Cc3ccccc3)n2)cc1S(=O)(=O)Nc1c(C)cccc1C` [Compound 1029], the 50% effective concentration (EC50) lay in the range of 10 to 20 µM and the Emax is greater than 300%.

On to `COc1ccc(NC(=O)c2cc(-n3ccnc3)ccn2)cc1S(=O)(=O)Nc1c(C)cccc1C` [Compound 1030], for which the concentration for a half-maximal effect (EC50) lay within 10 to 20 µM and the Emax is 200 to 300%.

In the case of `COc1ccc(NC(=O)c2cc(C3CC3)on2)cc1S(=O)(=O)Nc1c(C)cccc1C` [Compound 1031], the half-maximal effective concentration (EC50) is 10 to 20 µM and the Emax fell in the range of 200 to 300%.

Turning to `COc1ccc(NC(=O)c2cc(C(C)C)on2)cc1S(=O)(=O)Nc1c(C)cccc1C` [Compound 1032], the EC50 is less than 10 µM and the Emax was 200 to 300%.

In the case of `COc1ccc(NC(=O)c2ccc(F)c(-c3c(F)cccc3F)n2)cc1S(=O)(=O)Nc1c(C)cccc1C` [Compound 1033], the EC50 was less than 10 µM and the Emax fell in the range of 160 to 199%.

Consider `COc1ccc(NC(=O)c2cccc([C@H](F)c3cccc(F)c3)c2)cc1S(=O)(=O)Nc1c(C)cccc1C` [Compound 1034], for which the EC50 is less than 10 µM and the maximum response (Emax) lay in the range of 160 to 199%.

Consider `COc1ccc(NC(=O)c2cccc(Cc3ccc(F)cc3)c2)cc1S(=O)(=O)Nc1c(C)cccc1C` [Compound 1036], for which the EC50 was less than 10 µM and the Emax is 123 to 159%.

As to `COc1ccc(NC(=O)c2c(C)cc(Cl)nc2Cl)cc1S(=O)(=O)Nc1c(C)cccc1C` [Compound 1037], the EC50 lay in the range of 20 to 100 µM and the Emax was in the range of 160 to 199%.

For the molecule `COc1ccc(NC(=O)c2ccnc(SC)n2)cc1S(=O)(=O)Nc1c(C)cccc1C` [Compound 1039], the EC50 fell in the range of 20 to 100 µM and the Emax lay in the range of 160 to 199%.

For `COc1ccc(NC(=O)c2cccc3c2OC(C)(C)CC3)cc1S(=O)(=O)Nc1c(C)cccc1C` [Compound 1040], the EC50 was less than 10 µM and the Emax was 200 to 300%.

For `COc1ccc(NC(=O)c2cc3ccncc3s2)cc1S(=O)(=O)Nc1c(C)cccc1C` [Compound 1043], the EC50 is less than 10 µM and the Emax is 200 to 300%.

Regarding `COc1ccc(NC(=O)c2cccnc2-c2ccc(C)cc2)cc1S(=O)(=O)Nc1c(C)cccc1C` [Compound 1045], the EC50 lay within 10 to 20 µM and the Emax was in the range of 123 to 159%.

For `COc1ccc(NC(=O)c2cn(C(C)(C)C)nn2)cc1S(=O)(=O)Nc1c(C)cccc1C` [Compound 1050], the EC50 was in the range of 20 to 100 µM and the Emax lay within 160 to 199%.

With `COc1ccc(NC(=O)c2ccc(C(C)(C)C)nc2)cc1S(=O)(=O)Nc1c(C)cccc1C` [Compound 1052], the 50% effective concentration (EC50) was in the range of 20 to 100 µM and the Emax is 160 to 199%.

In the case of `COc1ccc(NC(=O)c2cccnc2-c2ccccc2C)cc1S(=O)(=O)Nc1c(C)cccc1C` [Compound 1053], the EC50 fell in the range of 20 to 100 µM and the Emax lay within 160 to 199%.

`COc1ccc(NC(=O)c2onc3c2CCCC3)cc1S(=O)(=O)Nc1c(C)cccc1C` [Compound 1056]: the 50% effective concentration (EC50) lay within 20 to 100 µM and the Emax is 123 to 159%.

Consider `COc1ccc(NC(=O)c2ccc(Cl)nc2C)cc1S(=O)(=O)Nc1c(C)cccc1C` [Compound 1057], for which the EC50 fell in the range of 20 to 100 µM and the Emax was 160 to 199%.

As to `COc1ccc(NC(=O)c2cccc3ccn(C)c23)cc1S(=O)(=O)Nc1c(C)cccc1C` [Compound 1060], the EC50 is less than 10 µM and the maximal effect (Emax) lay in the range of 200 to 300%.

With `COc1ccc(NC(=O)c2ccnn2-c2ccccc2)cc1S(=O)(=O)Nc1c(C)cccc1C` [Compound 1061], the EC50 lay in the range of 10 to 20 µM and the Emax is 200 to 300%.

For the molecule `COc1ccc(NC(=O)c2cc(Br)cnc2C)cc1S(=O)(=O)Nc1c(C)cccc1C` [Compound 1062], the concentration for a half-maximal effect (EC50) was in the range of 20 to 100 µM and the Emax was 160 to 199%.

A word on the EC50: it is the concentration needed to bring the measured effect to its halfway point. Broadly, the Emax is the greatest response seen or fitted, relative to the assay's reference.
